Twelve molecules from ChEMBL document CHEMBL5576153, “Synthesis of diversely substituted pyridin-2(1H)-ones and in vivo evaluation of their anti-allodynic effect on cutaneous inflammatory mechanical allodynia” (2024) can be followed below.

Active and inactive are the calls of the source. The rule behind the calls is not given here.

The test deals with Rattus norvegicus. The experiment in a line: Anti-allodynic activity in rat model of capsaicin-induced inflammatory paw pain assessed as inhibition of mechanical allodynia at 5 uM administered intrathecally 30 mins prior to capsaicin induction and measured at 10 mins interval for 65 mins by von frey test relative to control. Format: functional. As to conditions: for inhibition in vivo at 5 µM: central, 1.583 h, time 95 min; for inhibition: time 95.0 min.

Take `O=C(Nc1c[nH]c(=O)c(-c2cccc3[nH]ccc23)c1)c1ccc([N+](=O)[O-])cc1`: the inhibition in vivo at 5 µM was determined as 58%.
For the molecule `CCN(CC)CCCn1ccc2c(-c3cc(Nc4ccncc4)c[nH]c3=O)cccc21`, the inhibition entry is “inactive”.
For the molecule `O=c1[nH]cc(Oc2ccncc2)cc1-c1cccc2[nH]ccc12`, the inhibition entry is “Active”.
For `CCN(CC)CCCCn1ccc2c(-c3cc(Nc4ccncc4)c[nH]c3=O)cccc21`, the inhibition result is “inactive”.
As to `O=c1[nH]cc(Nc2ccncc2)cc1-c1cccc2[nH]ccc12`, the inhibition in vivo at 5 µM was 56%.
Take `COc1ncc(Nc2ccncc2)cc1-c1cccc2[nH]ccc12`: the inhibition in vivo at 5 µM amounted to 85%.
As for `O=c1[nH]cc(Oc2ccc([N+](=O)[O-])cc2)cc1-c1cccc2[nH]ccc12`, the inhibition entry is “Active”.
Same read-out and setting: for `CN(c1ccncc1)c1c[nH]c(=O)c(-c2cccc3[nH]ccc23)c1` the value was “Active”; for `O=C(Nc1c[nH]c(=O)c(-c2cccc3[nH]ccc23)c1)c1ccncc1`, “Active”.
For the molecule `O=c1[nH]cc(OC2CCNCC2)cc1-c1cccc2[nH]ccc12`, the inhibition in vivo at 5 µM was found to be 64%.
Take `O=C(Nc1c[nH]c(=O)c(-c2cccc3[nH]ccc23)c1)C1CCNCC1`: the inhibition entry is “Active”.
The same measure, in the same setting: to `Cn1ccc2c(-c3cc(Nc4ccncc4)c[nH]c3=O)cccc21` belongs “inactive”.

What is called inhibition in vivo is the drop in the measured response relative to a control, in per cent.
